In brackets after ≈: the same amount, converted by molar mass.
Key:
S. aureus Smith = assay: In vitro antibacterial activity (MIC), S. aureus Smith; type: cell-based; settings: agar dilution, 18 hours at 35° C.
Protocol: (§1) The compounds have shown activity in vitro against one or more of the following strains of bacteria: S. aureus Smith, S. aureus 53-180, N. catarrhalis 8193, E. coli 9637, S. paratyphi 11737, K. pneumoniae 10031, or P. vulgaris 6896.
(§2) A stock solution or suspension of the test compound at a concentration of 2500 μg/ml. is prepared utilizing a suitable solvent or medium such as aqueous sodium hydroxide, aqueous lactic acid, methyl cellosolve, dimethylsulfoxide, dimethylacetamide, ethylene glycol, dimethylformamide, formamide, propylene glycol, acetone or methanol. Two-fold dilutions are made by adding appropriate amounts of sterile water to the solution or suspension of the test substance. One ml. quantities of each dilution are incorporated into Wellcotest Sensitivity Test Agar fortified with 5% hemolyzed horse blood (9 ml. vol.) in sterile Petri dishes to give plates containing varying concentrations of the test compound. The hardened surfaces of each plate are incubated with the test organism, and the plates are incubated for 18 hours at 35° C.

S. aureus 53-180 = assay: In vitro antibacterial activity (MIC), S. aureus 53-180; type: cell-based; settings: agar dilution, 18 hours at 35° C.
Protocol: as §1, §2

N. catarrhalis 8193 = assay: In vitro antibacterial activity (MIC), N. catarrhalis 8193; type: cell-based; settings: agar dilution, 18 hours at 35° C.
Protocol: as §1, §2

E. coli 9637 = assay: In vitro antibacterial activity (MIC), E. coli 9637; type: cell-based; settings: agar dilution, 18 hours at 35° C.
Protocol: as §1, §2

S. paratyphi 11737 = assay: In vitro antibacterial activity (MIC), S. paratyphi 11737; type: cell-based; settings: agar dilution, 18 hours at 35° C.
Protocol: as §1, §2

K. pneumoniae 10031 = assay: In vitro antibacterial activity (MIC), K. pneumoniae 10031; type: cell-based; settings: agar dilution, 18 hours at 35° C.
Protocol: as §1, §2

P. vulgaris 6896 = assay: In vitro antibacterial activity (MIC), P. vulgaris 6896; type: cell-based; settings: agar dilution, 18 hours at 35° C.
Protocol: as §1, §2

Escherichia coli (E-2) = assay: In vivo antibacterial synergism (mouse), Escherichia coli (E-2); parameters: species or system Mice (male, CD-1 strain); settings: p.o., at time of infection, Cpd. dose in combination with SM, 20160 min
Protocol: (§3) The test agent is weighed, suspended in 0.5% aqueous carboxymethyl cellulose, hemogenized (glass tissue grinder) and diluted according to the design of the experiment. Mice (male, 18±1 g., CD-1 strain) are pre-weighed, pooled, infected at random intraperitoneally with a 0.5 ml. standardized suspension (LD95 ±5%) of the bacterial organism in 5% gastric mucin and treated at random with single doses of the test agents either at the time of infection or six hours after infecting. The treated groups consist of ten mice per dosage level. Deaths are recorded daily for 14 days and the PD50 (mice are treated at time of infection) and CD50 (mice are treated six hours after infecting) values are calculated by the method of Reed and Muench [Amer. J. Hyg., 27, (1938)].

Escherichia coli (E-3) = assay: In vivo antibacterial synergism (mouse), Escherichia coli (E-3); parameters: species or system Mice (male, CD-1 strain); settings: p.o., at time of infection, Cpd. dose in combination with SM, 20160 min
Protocol: as §3

[1] = tested on: Staphylococcus aureus CHP; assay: In vivo antibacterial synergism (mouse), Staphylococcus aureus CHP; parameters: species or system Mice (male, CD-1 strain); settings: p.o., at time of infection, Cpd. dose in combination with SM, 20160 min
Protocol: as §3

In the case of `CC(C)c1cccc(Cn2ccc3c4c(N)nc(N)nc4ccc32)c1` [Example 5], the “MIC (minimal inhibitory concentration)” value (S. aureus Smith) is reported as 1.95 µg/mL (≈ 5.88 µM), the “MIC (minimal inhibitory concentration)” value (S. aureus 53-180) is reported as 0.488 µg/mL (≈ 1.47 µM) and the “MIC (minimal inhibitory concentration)” value (N. catarrhalis 8193) is reported as 3.9 µg/mL (≈ 11.8 µM). The “MIC (minimal inhibitory concentration)” value (E. coli 9637) was 7.81 µg/mL (≈ 23.6 µM), the “MIC (minimal inhibitory concentration)” value (S. paratyphi 11737) was 31.3 µg/mL (≈ 94.4 µM) and the “MIC (minimal inhibitory concentration)” value (K. pneumoniae 10031) was 0.244 µg/mL (≈ 0.736 µM). For the same compound, the “MIC (minimal inhibitory concentration)” value (P. vulgaris 6896) was 62.5 µg/mL (≈ 189 µM).
In the case of `Nc1nc(N)c2c(ccc3c2ccn3-c2ccncc2)n1` [Example 10, 7-(4-Pyridinyl)-7H-pyrrolo-[3,2-f]quinazoline-1,3-diamine], the “PD50, SM/Cpd. (Cpd. component)” value (Escherichia coli (E-2)) is reported as 1.20 mg. per kg, the “PD50, SM/Cpd. (Cpd. component)” value (Escherichia coli (E-3)) is reported as 6.25 mg. per kg and the “PD50, SM/Cpd. (Cpd. component)” value [1] is reported as 7.28 mg. per kg.
With `COC(=O)c1ccc(Cn2ccc3c4c(N)nc(N)nc4ccc32)cc1` [Example 8] the MIC (S. aureus Smith; Staphylococcus aureus, read-out: MIC (minimal inhibitory concentration)) was 31.5 µg/mL (≈ 90.7 µM).
